Test system: promoter of the gene for collagenase 1
Test: Inhibition of PMA-induced activity of the collagenase 1 promoter (CAT reporter, CAT-Elisa) in transfected HeLa cells
Assay type: cell-based
Conditions: conclusion in words from the Table, PMA induction
Procedure: The activity of a lycopene-rich tomato extract (LycOMato® marketed by Metaphar) was studied on HeLa cells transfected with an expression vector encoding a portion of the promoter of collagenase cloned upstream of the gene for chloramphenicol acetyltransferase (CAT).
The study made it possible to evaluate the effectiveness of a product in inhibiting the induction of the transcription of the gene for collagenase by phorbol 12-myristate 13-acetate (PMA).
The test was carried out on HeLa cells (ATCC CCL2), into which had been introduced the promoter of the gene for collagenase 1 (3.8 kB) cloned upstream of the gene for chloramphenicol acetyltransferase (CAT).
The cells were exposed to PMA at a concentration of 10 nM for 24 hours.
Before administration of PMA, the cells were contacted for 2 hours with lycopene (LycOMato® marketed by Metaphar) at concentrations varying from 10^−7% to 10^−4%, representing lycopene concentrations ranging from 6×10^−9% to 6×10^−6%.
Assaying of the CAT was carried out using a “CAT-Elisa” kit marketed by Boehringer, according to the supplier's instructions.
A “base level” for the expression of the CAT was measured in cells which had neither received PMA nor were treated with the test product.
The results of the test, reported in the following Table, are expressed with respect to the base level (100%) as percentage of inhibition of the expression of the CAT gene.

With `CC(C)=CCC/C(C)=C/C=C/C(C)=C/C=C/C(C)=C/C=C/C=C(C)/C=C/C=C(C)/C=C/C=C(\C)CCC=C(C)C` [lycopene] the “effect on the synthesis of collagenase 1 by inhibition of the activity of its promoter” value was “inhibitory effect”.
